# In US6395787B1, “Ocular hypotensive lipids” (Allergan Sales, Inc., priority 2000, dated 2002):
# Experiments:
# [1] = system: isolated chick ileum (EP3 receptor preparation); assay: Isolated chick ileum contraction; settings: compared to prostaglandin E2, 10^−6 M
# Description: (§1) Smooth muscle tension of isolated tissues was measured isometrically with force displacement transducers (Grass FT-03) and recorded on Grass Polygraphs (Models 7G and 79E). The organ baths contained Krebs solution maintained at 37° C. and gassed with 95% 02/5% CO2 to give a pH of 7.4. The Krebs solution had the following composition (mM): NaCl, 118.0; KCl, 4.7; KH2PO4, 1.2; CaCl2, 1.9; MgSO4, 1.18; NaHCO3, 25.0; glucose, 11.7; indomethacin, 0.001.
# The chick ileum is an EP3 receptor preparation. Portions of the chick ileum of 1.5 cm length were suspended under 1 g of tension. After a one hour equilibration period, a standard dose-response curve for PGE2 was obtained in a non-cumulative fashion with 30 minute wash-out periods between individual doses. Subsequently, test compound was added non-cumulatively. A maximal dose of PGE2 (10^−6 M) was finally given to serve as a second reference standard. Contractile activity at each concentration was then calculated as a % of the maximal PGE2 response reached at a 10^−6 M concentration.
# [2] = system: isolated guinea pig ileum (EP1 receptor preparation); assay: Isolated guinea pig ileum contraction
# Description: as §1
# The guinea pig ileum is an EP1 receptor preparation. An approximately 1.5 cm segment of guinea pig ileum was suspended in a jacketed organ bath under 1 g tension. Following a 1 hr equilibration period, a wash-out dose response curve for PGE2 was obtained. 30 min wash-out periods were allowed between doses. […] A final administration of PGE2 10^−6 M was given as a reference. Data were expressed as % maximal of the PGE2 response.
# dog intraocular pressure = assay: Intraocular pressure in conscious Beagle dogs; assay type: in vivo; settings: 0.1% dose, topical
# Description: Intraocular pressure studies in dogs involved pneumatonometry performed in conscious, Beagle dogs of both sexes (10-15 kg). The animals remained conscious throughout the study and were gently restrained by hand. Drugs were administered topically to one eye as a 25 μL volume drop, the other eye received 25 μL vehicle (0.1% polysorbate 80:10 mM TRIS) as a control. 0.1% proparacaine was used for corneal anesthesia during tonometry. Intraocular pressure was determined just before drug administration and at 2, 4 and 6 hr thereafter on each day of the 5 day study. Drug was administered immediately after the first IOP reading.
# [3] = system: dog ocular surface hyperemia; assay: Dog ocular surface hyperemia; assay type: in vivo; set-up: key: <1 trace 0.5; 1 mild 1; moderate 2; severe 3; settings: throughout the 24 hr experimental period, trace for vehicle
# Description: Ocular surface hyperemia was visually assessed and scored according to a system typically used clinically.
# Ocular surface hyperemia was evaluated at the same time points as intraocular pressure measurement. It should be noted that untreated dog eyes frequently have a pink/red tone. Thus, values of trace or even mild are not necessarily out of the normal range.
# human FP receptor = human FP receptor (Homo sapiens, UniProt P43088); assay: Ca2+ signal in CRL 1497 cells; assay type: cell-based; set-up: endogenous in cells; host or cells: CRL 1497 human dermal fibroblasts; Δ[Ca^2+]i mean χ ± SEM: unit not given here; settings: for Δ[Ca^2+]i mean χ ± SEM: n = 4
# Chain of human FP receptor (P43088 whole entry): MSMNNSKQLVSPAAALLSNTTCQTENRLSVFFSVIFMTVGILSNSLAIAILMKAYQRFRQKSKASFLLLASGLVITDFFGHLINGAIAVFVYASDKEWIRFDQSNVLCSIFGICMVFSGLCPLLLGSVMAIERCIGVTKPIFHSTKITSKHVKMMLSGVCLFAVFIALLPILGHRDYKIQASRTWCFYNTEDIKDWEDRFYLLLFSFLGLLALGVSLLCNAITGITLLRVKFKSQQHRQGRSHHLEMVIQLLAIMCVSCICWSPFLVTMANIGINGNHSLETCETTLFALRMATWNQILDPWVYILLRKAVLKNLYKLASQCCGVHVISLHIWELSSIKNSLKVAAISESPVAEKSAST
# Description: Human CRL 1497 cells were plated in culture flasks and fed Dulbecco's modified Eagle's medium (DMEM) containing 10% fetal calf serum, 2 mM 1-glutamine, and 0.05 mg/ml gentacin (all purchased from Gibco, Grand Island, N.Y.). Cell cultures were maintained in a humidified atmosphere of 95% air, 5% CO2 and grown to confluency. Cells were removed from the culture flasks by approximately 1 min treatment with trypsin 0.05%/0.53 mM EDTA in Hanks Balanced Salt Solution (HBSS, Gibco, Grand Island, N.Y.) at 37° C. Proteolytic activity was arrested by adding 5 ml of 10% fetal bovine serum in DMEM. The cells were consecutively washed in Hank's BSS and medium containing 140 mM NaCl, […], 1 mM MgCl2, 1.5 mM CaCl2, 10 mM HEPES: TRIS, 5 mM glucose, 5 mM Na pyruvate, 0.1% bovine serum albumin at pH 7.4: Centrifugation for the washes was performed for 15 minutes at 200 g at room temperature. Cells were counted, resuspended in the above medium and incubated with 2×10^−6 M Fura 2/acetoxymethyl ester in a shaking water bath for 30 minutes at 37° C. The cells were subsequently washed in medium as above and resuspended at a concentration of 2×10^6 cells ml^−1. Aliquots of 0.5 ml cell suspension were then added to autocap microtubes to provide 10^6 cells per experimental determination of intracellular free Ca^2+ concentration ([Ca^2+]i).
# Fluorescence was measured in a Perkin-Elmer LS-5 fluorescence spectrophotometer at excitation and emission wavelengths of 340 and 492 nm, respectively, with both slits at 10 nm. For each experimental determination 10^6 cells were washed (200×g for 5 min) and suspended in a 2 ml cuvette with buffer containing 120 mM NaCl, 6 mM KCl, 1 mM MgSO4, 1.5 mM CaCl2, 20 mM HEPES, 1 mg ml^−1 glucose and 1 mg ml^−1 Na pyruvate. Stirring was achieved by an overhead-mounted, paddle stirrer with the temperature maintained at 37° C. The cells were lysed with digitonin (10 μl of 100 mg ml^−1 DMSO) to obtain fmax. EGTA (100 mM) and sufficient 10N NaOH to adjust the pH to 8.5 were then successively added to obtain fmin.
smiles,measurement,setting,value
"CCCCC[C@H](O)/C=C/[C@@H]1[C@@H](C/C=C\CCCC(=O)NCCO)[C@@H](O)C[C@H]1O [PGF2α 1-ethanolamide, (5Z,8α,9α,11α,13E,15S)-9,11,15-trihydroxy-N-(2-hydroxyethyL)prosta-5,13-dien-1-amide]",effect on the isolated chick ileum,[1],weak partial agonist
same,Emax at 10 µM,"[2]; Cavia porcellus, 10^−5 M, reference contraction PGE2 10^−6 M, n = 4, read-out: % Maximal response mean χ ± SEM",9.7 ± 4.2%
same,Emax at 1 µM,"[2]; Cavia porcellus, 10^−6 M, reference contraction PGE2 10^−6 M, n = 4, read-out: % Maximal response mean χ ± SEM",4 ± 2.6%
same,Emax at 0.1 µM,"[2]; Cavia porcellus, 10^−7 M, reference contraction PGE2 10^−6 M, n = 4, read-out: % Maximal response mean χ ± SEM",0%
same,Emax at 0.01 µM,"[2]; Cavia porcellus, 10^−8 M, reference contraction PGE2 10^−6 M, n = 4, read-out: % Maximal response mean χ ± SEM",0%
same,effect in the guinea pig ileum,[2]; compared with chick ileum,less effective
same,duration of intraocular pressure effect,dog intraocular pressure,persisted over the entire 24 hr experimental period
same,effect on intraocular pressure,dog intraocular pressure,marked and highly significant decrease
same,ocular surface hyperemia,[3],mild
same,Δ[Ca^2+]i mean χ ± SEM,"human FP receptor; 10^−5 M, CRL 1497 cells",97.9 ± 10.8
same,Δ[Ca^2+]i mean χ ± SEM,"human FP receptor; 10^−6 M, CRL 1497 cells",45.8 ± 11.5
same,Δ[Ca^2+]i mean χ ± SEM,"human FP receptor; 10^−7 M, CRL 1497 cells",13.5 ± 3.9
same,Δ[Ca^2+]i mean χ ± SEM,"human FP receptor; 10^−8 M, CRL 1497 cells",3.4 ± 1.5
same,difference in potency at the human FP receptor vs PGF2α,"human FP receptor; CRL 1497 cells, Ca2+ signal",about a one hundred fold difference in potency
same,EC50,"human FP receptor; CRL 1497 human dermal fibroblasts, read-out: E.C.50, Ca2+ signal",1590 nM
